Measurements taken from article PMC11643450, “Pimozide and Adipic Acid: A New Multicomponent Crystalline Entity for Improved Pharmaceutical Behavior” (Molecules, 2024).
≈ marks a conversion by molar mass, not a printed value.

Experiments:
[1] = Contact angle (wettability) of powder samples with drops of the different fluids; assay type: physicochemical
Protocol: In total, 120 mg of each sample was placed in a cylindrical ring, and the surface was smoothed with a scraper. The Contact Angle Meter DMe-211Plus (NTG Nuova Tecnogalenica, Cernusco, Italy) was used to record the images of a drop (9 μL) of the different fluids once placed in contact with the surface of the samples at progressive times. The contact angles were measured using the software supplied with the apparatus (three replicates).

[2] = In vitro dissolution test, USP apparatus 2 (paddle); assay type: physicochemical
Protocol: For the dissolution tests, the USP apparatus 2, paddle (Erweka DT-D6, Erweka GmbH, Dusseldorf, Germany) was used at 37.0 ± 0.5 °C and 50 rpm (three replicates). In 900 mL of 0.01 N hydrochloric acid pH = 2, which is the medium requested by the USP monograph (Pimozide Tablets, Official Monograph. In The United States Pharmacopeia (USP43-NF38); United States Pharmacopeia Convention, Inc.: Rockville, MD, USA, 2023; p. 3548), it can simulate a fasted stomach environment and, in other two fluids, simulates the following: pH 4.5 phosphate buffer (a condition that simulates the gastric environment in fed conditions) and deionized water (neutral conditions). The dissolution media were prepared according to the reagent and buffer solutions section of the USP [33]. […] The drug concentration was determined using UV detection (Lambda 25, Perkin-Elmer, Monza, Italy), and the data were analyzed using the software provided (Winlab V6 software, Perkin-Elmer, Monza, Italy).

[3] = design: method as in doi:10.1016/j.molliq.2015.12.054; conditions: cited from earlier work
[4] = Solubility at equilibrium, shake flask method with spectrophotometric determination; assay type: physicochemical; conditions: thermodynamic from solid, 21 °C
Protocol: The samples were sieved through a 230-mesh grid, 63 μm (Endecotts, London, UK).
An excess sample is placed in the flasks containing the three different fluids and left under stirring. At time intervals, a portion of the solution was taken and filtered on a 0.22 μm filter (Millipore Merck, Darmstadt, Germany). The drug concentration was determined using UV detection (Lambda 25, Perkin-Elmer, Monza, Italy). The test was repeated until equilibrium was reached.

Row | Compound | Wettability ([1]; pH 2) | Passage into solution ([2]; deionized water (neutral conditions), compared with pH 4.5, 4 mg PMZ) | Fraction of the dose passed into solution in the first hour ([2]; pH 4.5 phosphate buffer (fed stomach), 4 mg PMZ) | Contact angle ([1]; deionized water) | Contact angle ([1]; pH 2, after about 3 min) | Contact angle ([1]; pH 2, initial) | Contact angle ([1]; pH 4.5) | BCS class [3] | solubility ([4]; aqueous buffer, pH 4.5 (phosphate buffer)) [µg/mL] | solubility ([4]; simulated gastric fluid, pH 2.0 (0.01N hydrochloric acid)) [µg/mL] | solubility ([4]; H2O (deionized water)) [µg/mL]
1 | O=C(O)CCCCC(=O)O [AAD, adipic acid] | poorly wettable |  |  |  |  |  |  |  |  |  | 
2 | O=c1[nH]c2ccccc2n1C1CCN(CCCC(c2ccc(F)cc2)c2ccc(F)cc2)CC1 [PMZ, 1-(1-(4,4-bis(p-fluorophenyl)butyl)-4-piperidyl)-2-benzimidazoline] |  | further depressed | just a very tiny fraction of the dose | ~120 θ | 4 θ | 120 θ | about 130 θ | class II | 6.4 ± 0.2 (≈ 13.9 µM) | 175 ± 1.8 (≈ 380 µM) | 1.4 ± 0.3 (≈ 3.03 µM)
3 | [PMZH]2[adipate] [PMZ:AAD 0.66:0.33ev] |  |  |  | less than 100 θ |  |  | less than 90 θ |  |  |  | 
